Results as given in ChEMBL document CHEMBL1122779, “Antiinflammatory agents. 3. Synthesis and pharmacological evaluation of 2-amino-3-benzoylphenylacetic acid and analogues” (J Med Chem, 1984).

How the values were obtained:
[1] = tested on: Rattus norvegicus; assay: Percent change in average volume of pleural fluid at a dose 4 mg/kg of indomethacin and 5-h response is evaluated by Evans blue-carrageenan induced pleural effusion assay; type: functional
[2] = species: Rattus norvegicus; assay: Evaluated for chronic potency in adjuvant arthritis assay; type: functional
[3] = tested on: Rattus norvegicus; assay: Percent change in average volume of pleural fluid at a dose of 4.0 mg/kg and 5-h response by Evans blue-carrageenan induced pleural effusion assay.; type: functional
[4] = biological target: T1, Cyclooxygenase (Bos taurus, UniProt O62664+O62698)
T1 sequence (O62664 whole entry): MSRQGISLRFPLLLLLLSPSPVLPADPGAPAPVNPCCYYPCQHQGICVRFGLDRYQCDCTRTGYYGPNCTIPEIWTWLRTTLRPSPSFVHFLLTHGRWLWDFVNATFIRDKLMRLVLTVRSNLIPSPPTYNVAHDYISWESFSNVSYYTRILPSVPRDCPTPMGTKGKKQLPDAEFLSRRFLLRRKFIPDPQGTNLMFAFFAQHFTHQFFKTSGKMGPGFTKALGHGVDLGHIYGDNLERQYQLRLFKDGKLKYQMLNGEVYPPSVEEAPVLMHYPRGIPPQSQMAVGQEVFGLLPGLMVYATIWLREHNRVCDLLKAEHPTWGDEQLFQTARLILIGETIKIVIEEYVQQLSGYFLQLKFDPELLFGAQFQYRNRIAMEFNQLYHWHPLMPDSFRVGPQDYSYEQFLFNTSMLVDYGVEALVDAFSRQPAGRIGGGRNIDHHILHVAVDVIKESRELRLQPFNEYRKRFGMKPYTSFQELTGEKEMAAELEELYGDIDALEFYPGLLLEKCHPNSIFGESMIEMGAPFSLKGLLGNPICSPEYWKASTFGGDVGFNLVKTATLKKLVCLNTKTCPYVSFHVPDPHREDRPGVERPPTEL
T1 sequence (O62698 whole entry): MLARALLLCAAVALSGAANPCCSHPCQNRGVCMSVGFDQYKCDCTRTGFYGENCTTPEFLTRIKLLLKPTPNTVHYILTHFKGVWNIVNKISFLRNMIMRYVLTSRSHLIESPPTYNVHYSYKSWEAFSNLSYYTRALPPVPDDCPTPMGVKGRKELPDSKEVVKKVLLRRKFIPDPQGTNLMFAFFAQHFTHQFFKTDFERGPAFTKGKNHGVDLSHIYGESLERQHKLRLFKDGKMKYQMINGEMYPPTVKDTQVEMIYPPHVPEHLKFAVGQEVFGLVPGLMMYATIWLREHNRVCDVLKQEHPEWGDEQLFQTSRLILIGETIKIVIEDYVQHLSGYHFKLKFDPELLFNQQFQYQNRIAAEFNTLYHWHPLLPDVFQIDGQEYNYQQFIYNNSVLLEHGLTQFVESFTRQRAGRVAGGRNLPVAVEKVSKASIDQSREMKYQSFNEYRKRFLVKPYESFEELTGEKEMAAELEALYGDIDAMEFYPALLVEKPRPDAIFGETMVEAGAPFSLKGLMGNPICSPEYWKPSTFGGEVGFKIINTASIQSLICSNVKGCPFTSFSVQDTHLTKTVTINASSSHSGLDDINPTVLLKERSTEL
Description: Inhibition of prostaglandin G/H synthase obtained from bovine seminal vesicles.

[5] = tested on: Mus musculus; assay: Oral analgesic activity was determined in mice by the acetylcholine-induced abdominal constriction assay upon ip administration of acetylcholine bromide 20 min following oral administration; type: functional; settings: Abdomen
[6] = tested on: Mus musculus; assay: Oral analgesic activity was determined in mice by the acetylcholine-induced abdominal constriction assay upon ip administration of acetylcholine bromide 5 hours following oral administration; type: functional; settings: Abdomen
[7] = species: Rattus norvegicus; assay: Evaluated for acute potency in pleural effusion assay; type: functional
[8] = tested on: Rattus norvegicus; assay: Percent change in average volume of pleural fluid at a dose of 100 mg/kg and 5-h response by Evans blue-carrageenan induced pleural effusion assay.; type: functional
[9] = tested on: Rattus norvegicus; assay: Acute gastric toxicity (single oral dose) in male fasted rats; type: organism-based, Stomach; settings: in vivo
[10] = tested on: Rattus norvegicus; assay: Evaluated for chronic intestinal toxicity (multiple oral dose) in rats; type: organism-based; settings: in vivo

IC50 [4] [µM] | SMILES | Change [1] [%] | Potency [2] | Change [3] [%] | ED50 [5] [mg/kg] | ED50 [6] [mg/kg] | Potency [7] | Change [8] [%] | Gastric toxicity [9] | Intestinal toxicity [10]
0.9 | Nc1c(CC(=O)[O-])cccc1C(=O)c1ccc(F)cc1.[Na+] | -35 | – | 0 | – | – | – | -36 | – | –
0.3 | Nc1c(CC(=O)[O-])cccc1C(=O)c1ccccc1Cl.[Na+] | -33 | – | -22 | – | – | – | -42 | – | –
50 | Nc1c(CC(=O)[O-])cccc1C(=O)c1ccc(Cl)c(Cl)c1.[Na+] | -30 | – | -10 | – | – | – | – | – | –
1 | Nc1c(CC(=O)[O-])cccc1C(=O)c1ccc(C(F)(F)F)cc1.[Na+] | – | – | -38 | – | – | – | -24 | – | –
1 | Nc1c(CC(=O)[O-])cc(Cl)cc1C(=O)c1ccccc1.[Na+] | -35 | – | -17 | – | – | – | – | – | –
12 | COc1cc(CC(=O)[O-])c(N)c(C(=O)c2ccc(Cl)cc2)c1.[Na+] | -37 | – | -26 | – | – | – | -36 | – | –
0.4 | CSc1ccc(C(=O)c2cc(C)cc(CC(=O)[O-])c2N)cc1.[Na+] | -42 | – | -26 | – | – | – | -47 | – | –
3 | Cc1ccc(C(=O)c2ccccc2)c(N)c1CC(=O)[O-].[Na+] | -38 | – | 2 | – | – | – | -39 | – | –
0.2 | Nc1c(CC(=O)[O-])cc(F)cc1C(=O)c1ccccc1.[Na+] | -20 | – | -9 | – | – | – | -33 | – | –
> 1000 | Cc1ccc(CC(=O)[O-])c(N)c1C(=O)c1ccccc1.[Na+] | -1 | – | -38 | – | – | – | -13 | – | –
0.6 | Nc1c(CC(=O)[O-])cc(Br)cc1C(=O)c1ccc(Cl)cc1.[Na+] | -40 | – | -26 | – | – | – | -42 | – | –
17 | Cc1cc(CC(=O)[O-])c(N)c(C(=O)c2ccc(F)cc2)c1.[Na+] | -42 | – | 0 | – | – | – | -35 | – | –

SMILES | IC50 [4] [µM] | Change [1] [%] | Potency [2] | Change [3] [%] | ED50 [5] [mg/kg] | ED50 [6] [mg/kg] | Potency [7] | Change [8] [%] | Gastric toxicity [9] | Intestinal toxicity [10]
CSc1ccc(C(=O)c2cc(F)cc(CC(=O)[O-])c2N)cc1.[Na+] | 0.008 | -33 | 0.03 | -28 | 0.1 | > 1 | 0.4 | – | – | –
Cc1cc(CC(=O)[O-])c(N)c(C(=O)c2ccc(Br)cc2)c1.[Na+] | 0.7 | -36 | 1 | -31 | 0.72 | 0.7 | 2.8 | -39 | 1.2 | 1.1
Nc1c(CC(=O)[O-])cccc1C(=O)c1ccc(Br)cc1Cl.[Na+] | 0.05 | -32 | 7.4 | -26 | 0.12 | 1.6 | 1.6 | -37 | 5.6 | 1.6
Nc1c(CC(=O)[O-])cccc1C(=O)c1ccc(-c2ccccc2)cc1.[Na+] | 0.08 | -36 | – | -15 | – | – | – | -14 | – | –
Nc1c(CC(=O)[O-])cc(F)cc1C(=O)c1ccc(F)cc1.[Na+] | 0.2 | -40 | 0.01 | -42 | 0.71 | – | 1.4 | -42 | 0.37 | –
Cc1ccc(C(=O)c2cc(Cl)cc(CC(=O)[O-])c2N)cc1.[Na+] | 0.02 | -40 | 0.1 | -35 | 0.1 | 0.43 | 1.6 | -44 | 0.7 | –
